Laboratory results reported in publication PMC6941357, “An in vitro toolbox to accelerate anti-malarial drug discovery and development” (Malaria Journal, 2020).
Read-outs that look alike come from different tables or passages of the source. Marks after values point to notes of the source that are not given here.

Tests used:
human plasma = conditions: methods UF, ED, EP or not described per compound, ref [6]–[22] of Additional file 1; cited from earlier work
human liver microsomes = assay: in vitro; conditions: for HLM CLint: microsomes
Method in brief: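 Compound depletion in human liver microsomes was followed by LC–MS at 2–60 min, with cofactor-free controls. First-order depletion rate constants gave in vitro CLint (µL/min/mg protein), corrected to unbound CLint using measured microsomal fu.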

[1] = Ionization constants by potentiometric titration; assay type: physicochemical; conditions: mean ± SD, n = 3 titrations
Procedure: The autotitrator was controlled by Tiamo software (Version 1.3). pH measurements were conducted using a Metrohm LL Micro glass electrode which was calibrated on the day of use with calibration standards at pH 2, 4, 7 and 10. All reagents were standardized (directly or indirectly) against potassium hydrogen phthalate (Sigma-Aldrich, A.C.S. Acidimetric Standard). Titrant solutions were protected from carbon dioxide absorption by flushing with nitrogen before sealing or by the incorporation of a drying tube filled with self-indicating soda lime into the titration reaction vessel set-up.
Aliquots were introduced directly into the titration vessel and diluted 1:10 with water (typical final compound concentration of 0.5 mM).

[2] = Binding to human liver microsomes via ultracentrifugation; assay type: in vitro ADME; conditions: human, liver microsomes, pH 7.4, 0.4 mg/mL protein, read-out: Fraction unbound, HLM
Method in brief: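 Unbound fraction by ultracentrifugation: Cunbound measured in protein-free supernate, Ctotal from spiked tubes held at 37 °C, sampled at start and end to check degradation. Matrix was 0.4 mg/mL human liver microsomal protein, 0.1 M phosphate pH 7.4; matrix-matched analysis against one calibration curve.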

CYP3A4 = CYP3A4 (Homo sapiens, UniProt P08684); assay: in vitro; conditions: microsomes
CYP3A4, sequence (P08684 whole entry, canonical isoform): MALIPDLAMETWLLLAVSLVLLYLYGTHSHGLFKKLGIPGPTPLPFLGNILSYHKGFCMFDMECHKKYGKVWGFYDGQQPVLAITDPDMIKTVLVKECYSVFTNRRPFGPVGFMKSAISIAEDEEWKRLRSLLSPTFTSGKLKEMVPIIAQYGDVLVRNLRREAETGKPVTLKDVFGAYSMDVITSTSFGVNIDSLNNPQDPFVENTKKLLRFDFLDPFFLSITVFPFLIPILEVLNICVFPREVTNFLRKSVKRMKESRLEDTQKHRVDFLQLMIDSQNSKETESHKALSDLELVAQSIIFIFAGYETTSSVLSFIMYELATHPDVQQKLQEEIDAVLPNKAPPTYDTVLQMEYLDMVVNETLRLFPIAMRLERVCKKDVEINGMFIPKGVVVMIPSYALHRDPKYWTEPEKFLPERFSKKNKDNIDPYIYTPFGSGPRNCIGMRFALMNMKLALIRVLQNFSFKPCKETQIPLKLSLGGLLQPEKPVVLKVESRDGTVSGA
Method in brief: (§1)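 Human liver microsomes were incubated with an isoform-specific probe substrate, and formation of the CYP-mediated metabolite was measured by LC–MS after quenching in ice-cold acetonitrile with diazepam as internal standard. Inhibition was expressed as percent reduction in metabolite formation versus an uninhibited control.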

CYP1A2 = target: T1, CYP1A2 (Homo sapiens, UniProt P05177); assay: in vitro; conditions: microsomes
T1 sequence (P05177 1-516): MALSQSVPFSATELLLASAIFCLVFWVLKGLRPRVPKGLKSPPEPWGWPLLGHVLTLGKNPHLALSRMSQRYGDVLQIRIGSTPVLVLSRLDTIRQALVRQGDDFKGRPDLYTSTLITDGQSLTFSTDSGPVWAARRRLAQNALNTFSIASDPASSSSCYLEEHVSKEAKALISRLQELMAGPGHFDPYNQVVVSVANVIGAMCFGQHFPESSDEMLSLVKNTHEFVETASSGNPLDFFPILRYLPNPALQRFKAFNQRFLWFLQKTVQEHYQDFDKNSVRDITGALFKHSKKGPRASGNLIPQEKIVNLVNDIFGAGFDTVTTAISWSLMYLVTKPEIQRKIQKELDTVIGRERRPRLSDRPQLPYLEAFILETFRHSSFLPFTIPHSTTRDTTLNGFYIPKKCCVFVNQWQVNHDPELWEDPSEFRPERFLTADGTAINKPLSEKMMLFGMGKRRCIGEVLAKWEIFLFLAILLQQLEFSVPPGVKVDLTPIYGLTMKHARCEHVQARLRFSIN
Method in brief: as §1

CYP2D6 = CYP2D6 (Homo sapiens, UniProt P10635); assay: in vitro; conditions: microsomes
CYP2D6, sequence (P10635 whole entry): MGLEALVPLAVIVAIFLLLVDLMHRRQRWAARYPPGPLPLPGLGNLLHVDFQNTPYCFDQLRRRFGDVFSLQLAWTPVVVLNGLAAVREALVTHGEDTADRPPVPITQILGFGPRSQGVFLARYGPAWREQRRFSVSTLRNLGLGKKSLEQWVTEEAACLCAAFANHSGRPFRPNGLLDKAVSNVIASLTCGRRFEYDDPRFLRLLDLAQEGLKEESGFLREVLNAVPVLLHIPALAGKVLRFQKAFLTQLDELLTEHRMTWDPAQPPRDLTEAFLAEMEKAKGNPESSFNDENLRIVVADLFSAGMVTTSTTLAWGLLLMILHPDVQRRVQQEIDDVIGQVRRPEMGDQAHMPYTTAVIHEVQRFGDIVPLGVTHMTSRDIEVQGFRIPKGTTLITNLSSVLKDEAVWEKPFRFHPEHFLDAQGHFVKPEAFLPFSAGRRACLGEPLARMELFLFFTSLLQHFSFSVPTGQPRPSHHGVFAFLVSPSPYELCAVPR
Method in brief: as §1

CYP2C19 = CYP2C19 (Homo sapiens, UniProt P33261); assay: in vitro; conditions: microsomes
CYP2C19, sequence (P33261 whole entry): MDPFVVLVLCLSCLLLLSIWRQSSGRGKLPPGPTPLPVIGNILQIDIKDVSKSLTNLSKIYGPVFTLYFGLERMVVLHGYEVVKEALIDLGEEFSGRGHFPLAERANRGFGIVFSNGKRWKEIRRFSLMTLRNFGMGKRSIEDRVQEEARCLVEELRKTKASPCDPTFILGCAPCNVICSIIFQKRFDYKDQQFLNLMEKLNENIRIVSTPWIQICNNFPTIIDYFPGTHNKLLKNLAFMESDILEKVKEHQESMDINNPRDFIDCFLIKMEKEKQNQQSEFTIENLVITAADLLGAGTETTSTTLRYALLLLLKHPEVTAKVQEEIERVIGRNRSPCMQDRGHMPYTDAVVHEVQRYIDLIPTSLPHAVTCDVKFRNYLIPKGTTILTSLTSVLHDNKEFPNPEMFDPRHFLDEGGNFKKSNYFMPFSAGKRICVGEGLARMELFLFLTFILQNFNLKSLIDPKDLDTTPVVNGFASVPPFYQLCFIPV
Method in brief: as §1

SMILES | Literature fu (human plasma) | Unbound CLint (human liver microsomes; human, 1 µM, pH 7.4) | pKa ([1]; aqueous solution (DMSO stock diluted 1:10 with water), basic pKa (B), read-out: Measured pKa) | fraction unbound at […] [2] | inhibition at 20 µM (CYP3A4; human, pH 7.4, CYP3A4 (test) % inhibition at max conc) [%] | CYP3A4 (midaz) % inhibition at max conc (CYP3A4) | CYP1A2 % inhibition at max conc (CYP1A2) | Unbound CLint (human liver microsomes) | HLM CLint (human liver microsomes; human) | Measured pKa ([1]; acidic pKa (A)) | IC50 (CYP2D6) [µM] | Ki (CYP2D6) [µM] | CYP3A4 (test) % inhibition at max conc (CYP3A4) | IC50 (CYP3A4) [µM] | CYP2C19 % inhibition at max conc (CYP2C19) | IC50 (CYP2C19) [µM] | IC50 (CYP1A2) [µM] | Measured pKa ([1]; basic pKa (B))
OC(c1cc(C(F)(F)F)nc2c(C(F)(F)F)cccc12)C1CCCCN1 (stereo not drawn) [Mefloquine] | 0.02 | < 140^c µL/min/mg | 8.5 ± 0.04 | 0.05 ± 0.006 | 29 | nmi | nmi | – | – | – | – | – | – | – | – | – | – | –
CC(C)(C)NCc1cc(C(C)(C)C)cc(-c2cnc(C(F)(F)F)c(F)c2)c1O [JPC3210] | 0.024 | – | – | – | – | nmi | nmi | 328 µL/min/mg | 9.50 µL/min/mg | 5.3 ± 0.04 (A) | 0.7 | 0.43 | nmi | > 20 | nmi | > 20 | > 20 | –
CCN(CC)CCCNc1ccnc2cc(Cl)ccc12.Cl.Cl [AQ-13] | 0.45 | – | – | – | – | nmi | nmi | < 10.6^c µL/min/mg | < 7^b µL/min/mg | – | 13 | 8.3 | nmi | > 20 | nmi | > 20 | > 20 | 7.6 ± 0.2 (B)
